From ChEMBL document CHEMBL5247609, “Novel nitric oxide-releasing derivatives of pyranocarbazole as antitumor agents: Design, synthesis, biological evaluation, and nitric oxide release studies” (Eur J Med Chem, 2022) come the findings set out here.

Assay [1] has as its system MDA-MB-231. Nature of the assay: Antiproliferative activity against human MDA-MB-231 cells assessed as reduction in cell viability by measuring release of nitrite at 100 uM after 180 mins by Griess reagent analysis. The assay is classed as functional. The note with it: 3 h. (In general: Griess reagent forms a coloured azo dye with nitrite.)
The test system of a further assay is MX1. Briefly: Induction of apoptosis in human MX1 cells assessed as downregulation of Bcl-2 by Western blotting analysis. The assay is classed as functional, cell-based. The note with it: dose 0.5-2 µM. (Immunoblotting shows a protein as a band on a membrane.)
Assay [2] deals with MDA-MB-231. Nature of the assay: Inhibition of PI3K/Akt signaling in human MDA-MB-231 cells assessed as decrease in phosphorylated Akt expression level incubated for 24 hrs by Western blotting analysis. The assay is classed as cell-based. Conditions: dose 0.5-5 µM.
The test system of assay [3] is MDA-MB-231. Briefly: Induction of apoptosis in human MDA-MB-231 cells assessed as early apoptotic cells measured at 0.5 uM after 48 hrs by FITC-Annexin-V and propidium iodide based flow cytometric analysis (reference value: 2.71%). The assay is classed as functional.
The subject of assay [4] is MDA-MB-231. Briefly: Induction of morphological changes in human MDA-MB-231 cells assessed as decrease in cell size at 0.5 to 2 uM measured after 24 hrs by bright field inverted microscopic analysis. The assay is classed as functional, cell-based. The note with it: dose 0.5-2 µM.
The subject of assay [5] is MDA-MB-231. Briefly: Antitumor activity against human MDA-MB-231 cells xenografted in BALBC mouse assessed as reduction of tumor volume at 150 mg/kg, IG administered every 3 days for 21 days relative to control. It counts as functional. Further details: scale not given: the % may be the effect or the level left. The note with it: time 21 day. For orientation: Xenograft models place foreign cells or tissue in a host animal.

Activity calls are given as the source filed them. The calls are words filed in the database; no cut-off is given here.

For `CC1(C)C=Cc2c(c(/C=C/C(=O)NCCOc3no[n+]([O-])c3S(=O)(=O)c3ccccc3)cc3c2[nH]c2ccc(C(C)(C)C)cc23)O1`, the Nitrite release with MDA-MB-231 [1] came out at 54.7 µM. The Activity result in the assay with MX1 was “Dose-Dependent Effect”; with MDA-MB-231 [3] it was 3.12%; with MDA-MB-231 [5] it was 40%. In addition, the inhibition entry in the assay on MDA-MB-231 [2] is “Dose-Dependent Effect”. Moreover, the result in the assay on MDA-MB-231 [4] was Active.
